What was measured:
[1] = target: T1, IRAK4 (Homo sapiens, UniProt Q9NWZ3); experiment: hPBMC IRAK4 degradation flow assay (monocytes); type: cell-based; set-up: endogenous in cells; host or cells: human PBMCs (monocytes, CD14 positive gate); conditions: CD14 positive monocytes, 20 h, read-out: hPBMC monocyte DC50 at 20 h
T1 sequence (Q9NWZ3 1-460): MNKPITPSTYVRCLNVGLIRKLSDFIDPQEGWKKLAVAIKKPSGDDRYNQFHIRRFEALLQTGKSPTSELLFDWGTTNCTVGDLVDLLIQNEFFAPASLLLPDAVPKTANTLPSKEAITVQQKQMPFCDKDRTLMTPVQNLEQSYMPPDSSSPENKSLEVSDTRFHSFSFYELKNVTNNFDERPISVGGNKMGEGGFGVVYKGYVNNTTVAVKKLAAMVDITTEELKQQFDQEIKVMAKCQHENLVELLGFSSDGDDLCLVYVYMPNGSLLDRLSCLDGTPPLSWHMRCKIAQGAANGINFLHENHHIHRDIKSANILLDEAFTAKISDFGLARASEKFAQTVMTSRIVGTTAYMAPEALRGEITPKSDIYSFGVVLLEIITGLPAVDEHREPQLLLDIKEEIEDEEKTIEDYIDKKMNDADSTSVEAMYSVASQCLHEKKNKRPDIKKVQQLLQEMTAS
Description: In the hPBMC IRAK4 degradation flow assay, frozen PBMCs were thawed into RPMI with 10% FBS and allowed to recover. On the same day as thawed, PBMCs were plated in 96 well plate, 90 μL per well. Compound plates were prepared and a 10 point, 5-fold dilution was performed with a final DMSO concentration of 0.1%. Compound 10 μL per well was added, sealed and incubated at 37° C., 5% CO2 for 20 hours (for 4 hour treatment, compounds were prepared and added the following day). Following the treatment incubation period (day 1), 1.6% PFA was added to PBMC plate and placed on plate shaker for 30 seconds and incubated for 10 mins at room temperature. Cells were spun down and washed two times with PBS/0.5% BSA, aspirated to pellet and placed into −80° C. freezer until further processing for flow. On the flow run day, PBMC plates were thawed and samples were transferred to PCR plates. The pre-perm staining cocktail (CD3 Ax488/CD8 BUV805/CD14 BUV395/CD16/56 BV711/CD19 BV785) was added to samples and incubated for 30 minutes at room temperature. Samples were washed two times and permeabilized with methanol for 10 minutes at 4° C. Samples were washed two times and the post-perm staining cocktail (CD4 PE/IRAK4 Ax647 BD #560315) was added and incubated for 30 minutes at room temperature. Samples were washed two times with PBS/BSA and run on a BD LSRFortessa. Mononuclear cells are gated by SSCH/FSCH and single cells. Monocytes are then gated through CD14 positive gate and lymphocytes are gated through CD14 negative gate. To determine absolute DC50 and max degradation values, MFI values were normalized to DMSO max and 20 hour 10 µM min control. Twenty hour dose curves were calculated using a 4 parameter logistic regression curve fit, no constraints (Top doses were removed if hook effects were observed and the bottom was constrained to 0).
(§1) IRAK4 MSD degradation in OCI-LY10 results at 4 and 24 hrs and hPBMC at 20 hrs for compounds of the invention are presented in Table 3. The letter codes for IRAK4 DC50 include: A (<0.1 μM), B (0.1-1.0 μM), C(>1.0-10.0 μM), D (>10.0 μM or not determined).

[2] = target: T1, IRAK4; experiment: IRAK4 degradation in OCI-LY10 (MSD, Meso Scale Discovery); type: cell-based; set-up: endogenous in cells; host or cells: OCI-LY10; conditions: OCI-LY10 cells, 24 h
Description: Degradation of IRAK4 in OCI-LY10 was quantitatively measured using Meso Scale Discovery technology. OCI-LY10 cells were seeded in 96-well plates (Corning 3799) with a density of 300,000 cells per well in 100 μL fresh media. Compounds were then added to the assay plates with a final top concentration of 1 to 10 μM in a 1:3 dilution series with total of 8 doses. The assay plates were then incubated for 4 to 24 hours at 37° C. under 5% CO2. The assay plates were then centrifuged for 5 minutes and the cell pellets were treated with 100 μL/well RIPA lysis buffer (Boston BioProducts BP-115D) with proteinase inhibitors. To prepare MSD assay plates (Meso Scale Discovery Catalog number L15XA-3), the plates were coated with 2 ug/mL capture antibody (mouse Anti-IRAK4 antibody [2H9], ab119942) in PBS, at 40 μL/well. The plates were then incubated overnight at […], washed 3 times with 150 μL/well TBST buffer (Cell Signaling Technology, Catalog number 9997S) and blocked with 150 μL/well blocking buffer (Meso Scale Discovery Catalog number R^93BA-4). Cell lysates were then added to MSD assay plates and the plates were incubated at room temperature for 1 hour. The plates were then washed 3 times with 150 μL/well TBST buffer and 25 μL/well primary detection antibody (rabbit Anti-IRAK4 antibody [Y279], from Abcam. Catalog number ab32511, 1 μg/mL). The assay plates were then incubated at room temperature for 1 hour, washed 3 times with 150 μL/well TBST buffer and 25 μL/well secondary detection antibody, SULFO-TAG anti-rabbit antibody were added (anti-rabbit antibody from Meso Scale Discovery, Catalog number R^32AB-1, 1 μg/mL). The assay plates were then incubated at room temperature for 1 hour, washed 3 times with 150 μL/well TBST buffer, and 150 μL/well MSD reading buffer (Meso Scale Discovery catalog number R^92TC-2) was added. The plates were then analyzed by a MSD reader (Meso Scale Discovery, Model Quick Plex SQ 120). The data was then analyzed by software Prism 7.0 from GraphPad and the dose-depended IRAK4 degradation were fit using a three-parameter logistic equation to calculate DC50.
as §1

Row | DC50 [1] | DC50 [2] | SMILES
1 | 1 to 10 µM | > 10 µM | COc1cc2nn([C@H]3CC[C@H](CNCCOCCOCCNc4cncc(N5CCC[C@H](C(=O)Nc6ccc(=O)n(CC(=O)O)c6)C5)c4)CC3)cc2cc1NC(=O)c1cccc(C(F)(F)F)n1 [Compound I-1]
2 | > 10 µM | > 10 µM | O=C(O)Cn1cc(NC(=O)[C@H]2CCCN(c3cncc(NCCOCCOCCNC[C@H]4CC[C@H](n5cc(NC(=O)c6cnn7ccc(N8C[C@H]9C[C@@H]8CO9)nc67)c(C(F)F)n5)CC4)c3)C2)ccc1=O [Compound I-2]
3 | > 10 µM | > 10 µM | COc1cc2nn([C@H]3CC[C@H](CNCCOCCOCCOCCOCCNc4cncc(N5CCC[C@H](C(=O)Nc6ccc(=O)n(CC(=O)O)c6)C5)c4)CC3)cc2cc1NC(=O)c1cccc(C(F)(F)F)n1 [Compound I-3]
4 | > 10 µM | > 10 µM | O=C(O)Cn1cc(NC(=O)[C@H]2CCCN(c3cncc(NCCOCCOCCOCCOCCNC[C@H]4CC[C@H](n5cc(NC(=O)c6cnn7ccc(N8C[C@H]9C[C@@H]8CO9)nc67)c(C(F)F)n5)CC4)c3)C2)ccc1=O [Compound I-4]
5 | 1 to 10 µM | > 10 µM | CCOC(=O)Cn1cc(NC(=O)[C@H]2CCCN(c3cncc(NCCOCCOCCNC[C@H]4CC[C@H](n5cc6cc(NC(=O)c7cccc(C(F)(F)F)n7)c(OC)cc6n5)CC4)c3)C2)ccc1=O [Compound I-5]
6 | > 10 µM | > 10 µM | CCOC(=O)Cn1cc(NC(=O)[C@H]2CCCN(c3cncc(NCCOCCOCCOCCOCCNC[C@H]4CC[C@H](n5cc(NC(=O)c6cnn7ccc(N8C[C@H]9C[C@@H]8CO9)nc67)c(C(F)F)n5)CC4)c3)C2)ccc1=O [Compound I-6]
7 | > 10 µM | > 10 µM | COc1cc2nn([C@H]3CC[C@H](CNCCNc4cncc(N5CCC[C@H](C(=O)Nc6ccc(=O)n(CC(=O)O)c6)C5)c4)CC3)cc2cc1NC(=O)c1cccc(C(F)(F)F)n1 [Compound I-7]
8 | > 10 µM | > 10 µM | O=C(O)Cn1cc(NC(=O)[C@H]2CCCN(c3cncc(NCCNC[C@H]4CC[C@H](n5cc(NC(=O)c6cnn7ccc(N8C[C@H]9C[C@@H]8CO9)nc67)c(C(F)F)n5)CC4)c3)C2)ccc1=O [Compound I-8]
9 | 0.1 to 1 µM | > 10 µM | COc1cc2nn([C@H]3CC[C@H](CN4CCC(OCC#Cc5cncc(N6CCC[C@H](C(=O)Nc7ccc(=O)n(CC(=O)O)c7)C6)c5)CC4)CC3)cc2cc1NC(=O)c1cccc(C(F)(F)F)n1 [Compound I-9]
10 | > 10 µM | > 10 µM | COc1cc2nn([C@H]3CC[C@H](CN4CCC(c5cncc(N6CCC[C@H](C(=O)Nc7ccc(=O)n(CC(=O)O)c7)C6)c5)CC4)CC3)cc2cc1NC(=O)c1cccc(C(F)(F)F)n1 [Compound I-10]
11 | > 10 µM | > 10 µM | O=C(O)Cn1cc(NC(=O)[C@H]2CCCN(c3cncc(C#CCOC4CCN(C[C@H]5CC[C@H](n6cc(NC(=O)c7cnn8ccc(N9C[C@H]%10C[C@@H]9CO%10)nc78)c(C(F)F)n6)CC5)CC4)c3)C2)ccc1=O [Compound I-11]
12 | > 10 µM | > 10 µM | O=C(O)Cn1cc(NC(=O)[C@H]2CCCN(c3cncc(C4CCN(C[C@H]5CC[C@H](n6cc(NC(=O)c7cnn8ccc(N9C[C@H]%10C[C@@H]9CO%10)nc78)c(C(F)F)n6)CC5)CC4)c3)C2)ccc1=O [Compound I-12]
13 | 1 to 10 µM | > 10 µM | CCOC(=O)Cn1cc(NC(=O)[C@H]2CCCN(c3cncc(NCCOCCOCCOCCOCCNC[C@H]4CC[C@H](n5cc6cc(NC(=O)c7cccc(C(F)(F)F)n7)c(OC)cc6n5)CC4)c3)C2)ccc1=O [Compound I-13]
14 | > 10 µM | > 10 µM | CCOC(=O)Cn1cc(NC(=O)[C@H]2CCCN(c3cncc(NCCNC[C@H]4CC[C@H](n5cc6cc(NC(=O)c7cccc(C(F)(F)F)n7)c(OC)cc6n5)CC4)c3)C2)ccc1=O [Compound I-14]
15 | > 10 µM | > 10 µM | CCOC(=O)Cn1cc(NC(=O)[C@H]2CCCN(c3cncc(NCCOCCOCCNC[C@H]4CC[C@H](n5cc(NC(=O)c6cnn7ccc(N8C[C@H]9C[C@@H]8CO9)nc67)c(C(F)F)n5)CC4)c3)C2)ccc1=O [Compound I-15]
16 | > 10 µM | > 10 µM | CCOC(=O)Cn1cc(NC(=O)[C@H]2CCCN(c3cncc(NCCNC[C@H]4CC[C@H](n5cc(NC(=O)c6cnn7ccc(N8C[C@H]9C[C@@H]8CO9)nc67)c(C(F)F)n5)CC4)c3)C2)ccc1=O [Compound I-16]
17 | 1 to 10 µM | > 10 µM | CCOC(=O)Cn1cc(NC(=O)[C@H]2CCCN(c3cncc(C4CCN(C[C@H]5CC[C@H](n6cc7cc(NC(=O)c8cccc(C(F)(F)F)n8)c(OC)cc7n6)CC5)CC4)c3)C2)ccc1=O [Compound I-17]
18 | 1 to 10 µM | > 10 µM | CCOC(=O)Cn1cc(NC(=O)[C@H]2CCCN(c3cncc(C4CCN(C[C@H]5CC[C@H](n6cc(NC(=O)c7cnn8ccc(N9C[C@H]%10C[C@@H]9CO%10)nc78)c(C(F)F)n6)CC5)CC4)c3)C2)ccc1=O [Compound I-18]
19 | > 10 µM | > 10 µM | COc1cc2nn([C@H]3CC[C@H](CN(C)CC4CCN(c5cncc(N6CCCC(C(=O)Nc7ccc(=O)n(CC(=O)O)c7)C6)c5)CC4)CC3)cc2cc1NC(=O)c1cccc(C(F)(F)F)n1 (stereo partly shown) [Compound I-19]
20 | > 10 µM | > 10 µM | CCOC(=O)Cn1cc(NC(=O)C2CCCN(c3cncc(N4CCC(CN(C)C[C@H]5CC[C@H](n6cc7cc(NC(=O)c8cccc(C(F)(F)F)n8)c(OC)cc7n6)CC5)CC4)c3)C2)ccc1=O (stereo partly shown) [Compound I-20]
21 | 1 to 10 µM | > 10 µM | O=C(O)Cn1cc(NC(=O)[C@H]2CCCN(c3cncc(CCCCNC[C@H]4CC[C@H](n5cc(NC(=O)c6cnn7ccc(N8C[C@H]9C[C@@H]8CO9)nc67)c(C(F)F)n5)CC4)c3)C2)ccc1=O [Compound I-21]
22 | < 0.1 µM | > 10 µM | CCOC(=O)Cn1cc(NC(=O)[C@H]2CCCN(c3cncc(C#CCOC4CCN(C[C@H]5CC[C@H](n6cc7cc(NC(=O)c8cccc(C(F)(F)F)n8)c(OC)cc7n6)CC5)CC4)c3)C2)ccc1=O [Compound I-22]
23 | 1 to 10 µM | > 10 µM | CCOC(=O)Cn1cc(NC(=O)[C@H]2CCCN(c3cncc(C#CCOC4CCN(C[C@H]5CC[C@H](n6cc(NC(=O)c7cnn8ccc(N9C[C@H]%10C[C@@H]9CO%10)nc78)c(C(F)F)n6)CC5)CC4)c3)C2)ccc1=O [Compound I-23]

From patent US20250205342A1, “IRAK DEGRADERS AND USES THEREOF” (Kymera Therapeutics, Inc., priority 2022, published 2025)
